The source of these data is ChEMBL document CHEMBL4842376, “Design, synthesis and biological evaluation of novel hybrids targeting mTOR and HDACs for potential treatment of hepatocellular carcinoma” (Eur J Med Chem, 2021).

For one series, the system named is MDA-MB-231. The series can be described thus: cells. The following applies: Homo sapiens, MDA-MB-231, 72 h. The format is functional, cell-based.
The test system of another series is L02. The experiment in a line: cells. Format: ADME, cell-based. The following applies: Homo sapiens, L02, 72 h.
Another series has as its system PLC-PRF-5. The experiment in a line: Antiproliferative activity against human PLC-PRF-5 cells assessed as inhibition of cell growth measured after 72 hrs by MTT assay. The format is functional, cell-based. The following applies: PLC-PRF-5, 72 h. On the technique in general: Formazan colour is commonly taken as a measure of viable cells.
Series [1] in a line: Metabolic stability in rat liver microsomes assessed as parent compound remaining at 10 ug/ml measured after 1 hr in the presence of NADPH by HPLC analysis. Format: ADME, Microsome. The following applies: at 10 µg/mL; for Stabilty: microsomes, 1 h. On the technique in general: Liver microsomes are a subcellular fraction often used to study metabolism.
For a further series, the system named is HeLa. The series can be described thus: cells. Format: functional, cell-based. The following applies: Homo sapiens, 72 h.
The next series concerns Huh-7. The experiment in a line: cells. Format: functional, cell-based. The following applies: Homo sapiens, Huh-7, 72 h.
The next series has as its system MCF7. The series can be described thus: cells. Format: functional, cell-based. The following applies: Homo sapiens, MCF7, 72 h.
The subject of the next series is SK-HEP1. The experiment in a line: cells. The format is functional, cell-based. The following applies: Homo sapiens, SK-HEP1, 72 h.
The subject of another series is HCT-116. The series can be described thus: cells. The following applies: Homo sapiens, HCT-116, 72 h. The format is functional, cell-based.
For a further series, the system named is Hep 3B2. The experiment in a line: cells. The format is functional, cell-based. The following applies: Homo sapiens, Hep3B, 72 h.
The next series relates to CNE-2. The series can be described thus: cells. Format: functional, cell-based. The following applies: Homo sapiens, CNE-2, 72 h.
For a further series, the system named is HepG2. The experiment in a line: Antiproliferative activity against human HepG2 cells assessed as inhibition of cell growth measured after 72 hrs by MTT assay. Format: functional, cell-based. The following applies: HepG2, 72 h.
A further series relates to A549. The experiment in a line: cells. Format: functional, cell-based. The following applies: Homo sapiens, A549, 72 h.
In the next series the test system is Bel-7402. The series can be described thus: Antiproliferative activity against human Bel-7402 cells assessed as inhibition of cell growth measured after 72 hrs by MTT assay. The format is functional, cell-based. The following applies: Bel-7402, 72 h.
A further series has as its system SNU-423. The experiment in a line: Antiproliferative activity against human SNU-423 cells assessed as inhibition of cell growth measured after 72 hrs by MTT assay. The following applies: SNU-423, 72 h. Format: functional, cell-based.
In series [2] the target is T1, Protein deacetylase HDAC6 (Homo sapiens) (UniProt Q9UBN7).
T1 sequence (whole entry): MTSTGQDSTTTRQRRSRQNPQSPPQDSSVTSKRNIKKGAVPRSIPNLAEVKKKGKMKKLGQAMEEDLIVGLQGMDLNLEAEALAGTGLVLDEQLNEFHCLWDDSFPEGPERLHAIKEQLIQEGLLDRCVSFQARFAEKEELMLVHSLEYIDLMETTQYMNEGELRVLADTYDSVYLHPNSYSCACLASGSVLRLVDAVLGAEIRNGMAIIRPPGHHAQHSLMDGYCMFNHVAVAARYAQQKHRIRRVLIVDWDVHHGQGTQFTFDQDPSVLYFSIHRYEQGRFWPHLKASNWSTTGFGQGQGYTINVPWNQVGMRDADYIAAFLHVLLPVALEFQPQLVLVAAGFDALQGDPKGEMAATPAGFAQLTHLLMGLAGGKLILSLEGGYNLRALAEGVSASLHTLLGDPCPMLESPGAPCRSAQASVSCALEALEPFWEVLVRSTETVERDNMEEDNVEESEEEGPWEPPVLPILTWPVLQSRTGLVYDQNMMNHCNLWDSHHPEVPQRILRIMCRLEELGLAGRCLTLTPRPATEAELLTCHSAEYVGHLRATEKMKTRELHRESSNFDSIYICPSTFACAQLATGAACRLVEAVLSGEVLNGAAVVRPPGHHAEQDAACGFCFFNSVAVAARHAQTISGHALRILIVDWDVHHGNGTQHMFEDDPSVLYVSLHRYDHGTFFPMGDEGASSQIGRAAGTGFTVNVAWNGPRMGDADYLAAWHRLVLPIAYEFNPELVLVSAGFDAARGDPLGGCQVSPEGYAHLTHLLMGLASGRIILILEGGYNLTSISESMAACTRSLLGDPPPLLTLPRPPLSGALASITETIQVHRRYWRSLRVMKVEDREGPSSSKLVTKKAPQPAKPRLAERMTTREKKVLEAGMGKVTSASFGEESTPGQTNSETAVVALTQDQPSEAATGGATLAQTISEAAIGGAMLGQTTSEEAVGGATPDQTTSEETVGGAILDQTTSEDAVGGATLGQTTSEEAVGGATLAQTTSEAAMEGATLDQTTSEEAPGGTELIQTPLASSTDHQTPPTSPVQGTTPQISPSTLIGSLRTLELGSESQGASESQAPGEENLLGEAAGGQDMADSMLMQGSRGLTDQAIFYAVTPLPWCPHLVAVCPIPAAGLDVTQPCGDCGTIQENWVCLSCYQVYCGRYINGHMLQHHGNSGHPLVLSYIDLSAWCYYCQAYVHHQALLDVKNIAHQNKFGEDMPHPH
The series can be described thus: Inhibition of HDAC6 (unknown origin) at 1 uM using Ac-peptide as a substrate pretreated for 15 mins followed by substrate addition relative to control.

The target in series [3] is Serine/threonine-protein kinase mTOR (Homo sapiens, UniProt P42345). The series can be described thus: Inhibition of mTOR (unknown origin) at 1 uM using U-Light-4E-BP1 peptide as a substrate in the presence of ATP incubated for 30 mins by Lance ultra assay relative to control.
The target in series [4] is T2, Protein deacetylase HDAC6 (Homo sapiens, UniProt Q9UBN7).
T2 sequence (Q9UBN7 whole entry): T1 sequence (whole entry)
The series can be described thus: Inhibition of HDAC6 (unknown origin) using Ac-peptide as a substrate pretreated for 15 mins followed by substrate addition.

Series [5] addresses T3, Histone deacetylase (Homo sapiens) (UniProt Q13547+O15379+Q9UBN7+Q92769+Q9UQL6+Q8WUI4+Q9BY41+Q96DB2+P56524+Q9UKV0+Q969S8). The experiment in a line: Inhibition of HDAC in human HepG2 cells assessed as upregulation of alpha-tubulin acetylation at 6 uM measured after 24 hrs by western blot analysis. Format: cell-based.
A further series concerns the target Histone deacetylase 1 (Homo sapiens, UniProt Q13547). The experiment in a line: Inhibition of HDAC1 (unknown origin) using Ac-peptide as a substrate pretreated for 15 mins followed by substrate addition.
A short description of a further series: in vitro. The following applies: human, L02 cells versus HepG2 cells.
In a further series the target is T4, Histone deacetylase 8 (Homo sapiens, UniProt Q9BY41).
T4 sequence (Q9BY41 whole entry): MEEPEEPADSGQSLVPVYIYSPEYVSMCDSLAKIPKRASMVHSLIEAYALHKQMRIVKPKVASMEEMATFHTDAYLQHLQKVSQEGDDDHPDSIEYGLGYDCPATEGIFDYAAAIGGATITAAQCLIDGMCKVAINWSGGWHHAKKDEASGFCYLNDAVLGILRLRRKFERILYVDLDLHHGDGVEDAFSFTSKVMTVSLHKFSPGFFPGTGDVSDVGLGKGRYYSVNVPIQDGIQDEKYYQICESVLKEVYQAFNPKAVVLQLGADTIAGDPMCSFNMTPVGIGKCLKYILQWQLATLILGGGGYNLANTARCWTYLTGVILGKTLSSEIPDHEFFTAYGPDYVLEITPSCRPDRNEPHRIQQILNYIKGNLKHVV
The experiment in a line: Inhibition of HDAC8 (unknown origin) using Ac-peptide as a substrate pretreated for 15 mins followed by substrate addition.

For the next series, the target named is Histone deacetylase 2 (Homo sapiens, UniProt Q92769).
The next series addresses Histone deacetylase 3 (Homo sapiens, UniProt O15379). The experiment in a line: Inhibition of HDAC3 (unknown origin) using Ac-peptide as a substrate pretreated for 15 mins followed by substrate addition.
Series [6] deals with T3, Histone deacetylase (Homo sapiens). The experiment in a line: Inhibition of HDAC in human HepG2 cells assessed as upregulation of histone H3 acetylation at 6 uM measured after 24 hrs by western blot analysis. The format is cell-based. A general note: In western blotting, separated proteins are transferred to a membrane and probed.

Each structure is given as a SMILES string. Calls of active or inactive are those of the source. The calls are words filed in the database; no cut-off is given here.

Chain of Histone deacetylase 1 (Q13547 whole entry): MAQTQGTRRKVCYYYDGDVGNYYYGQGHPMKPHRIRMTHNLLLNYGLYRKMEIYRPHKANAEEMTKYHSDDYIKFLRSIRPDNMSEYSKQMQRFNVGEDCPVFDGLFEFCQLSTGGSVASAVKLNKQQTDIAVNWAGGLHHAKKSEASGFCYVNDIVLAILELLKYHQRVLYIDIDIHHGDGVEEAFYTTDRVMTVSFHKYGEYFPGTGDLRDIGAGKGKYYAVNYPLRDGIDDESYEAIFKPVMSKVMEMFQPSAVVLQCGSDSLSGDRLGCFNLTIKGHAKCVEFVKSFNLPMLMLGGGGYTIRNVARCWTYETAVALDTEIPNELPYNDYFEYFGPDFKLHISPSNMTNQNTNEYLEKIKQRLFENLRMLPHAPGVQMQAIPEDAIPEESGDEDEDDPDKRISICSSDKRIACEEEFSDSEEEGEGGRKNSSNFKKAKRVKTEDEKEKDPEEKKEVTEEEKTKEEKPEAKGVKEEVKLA
Chain of Histone deacetylase 2 (Q92769 whole entry): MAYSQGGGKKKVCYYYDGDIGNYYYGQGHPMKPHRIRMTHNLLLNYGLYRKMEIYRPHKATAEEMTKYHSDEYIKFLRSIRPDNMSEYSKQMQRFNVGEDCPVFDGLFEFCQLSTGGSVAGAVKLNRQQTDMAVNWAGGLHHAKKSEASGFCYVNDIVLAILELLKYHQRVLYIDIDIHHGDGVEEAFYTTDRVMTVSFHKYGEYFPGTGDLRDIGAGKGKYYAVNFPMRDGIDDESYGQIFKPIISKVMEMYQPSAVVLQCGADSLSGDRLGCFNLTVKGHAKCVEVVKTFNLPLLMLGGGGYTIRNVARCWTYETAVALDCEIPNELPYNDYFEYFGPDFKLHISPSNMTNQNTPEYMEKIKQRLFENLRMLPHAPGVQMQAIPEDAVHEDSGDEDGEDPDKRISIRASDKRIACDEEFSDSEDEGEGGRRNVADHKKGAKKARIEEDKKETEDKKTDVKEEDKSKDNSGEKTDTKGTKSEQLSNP
Chain of Histone deacetylase 3 (O15379 whole entry): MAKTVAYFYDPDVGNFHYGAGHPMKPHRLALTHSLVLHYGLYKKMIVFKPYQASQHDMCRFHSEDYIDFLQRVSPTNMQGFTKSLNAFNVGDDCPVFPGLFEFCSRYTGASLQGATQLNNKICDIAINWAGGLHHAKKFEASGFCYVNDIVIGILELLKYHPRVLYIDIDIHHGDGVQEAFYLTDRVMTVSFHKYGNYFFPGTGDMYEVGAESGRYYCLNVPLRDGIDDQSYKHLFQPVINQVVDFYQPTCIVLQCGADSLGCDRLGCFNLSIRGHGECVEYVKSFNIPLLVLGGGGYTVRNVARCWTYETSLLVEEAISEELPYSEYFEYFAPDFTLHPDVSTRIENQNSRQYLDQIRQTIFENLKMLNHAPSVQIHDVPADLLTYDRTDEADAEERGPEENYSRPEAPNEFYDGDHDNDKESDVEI
Description for A549: Antiproliferative activity against human A549 cells assessed as inhibition of cell growth measured after 72 hrs by MTT assay
Description for CNE-2: Antiproliferative activity against human CNE-2 cells assessed as inhibition of cell growth measured after 72 hrs by MTT assay
Description for HCT-116: Antiproliferative activity against human HCT-116 cells assessed as inhibition of cell growth measured after 72 hrs by MTT assay
Description for HeLa: Antiproliferative activity against human HeLa cells assessed as inhibition of cell growth measured after 72 hrs by MTT assay
Description for Hep 3B2: Antiproliferative activity against human Hep3B cells assessed as inhibition of cell growth measured after 72 hrs by MTT assay
Description for Huh-7: Antiproliferative activity against human Huh-7 cells assessed as inhibition of cell growth measured after 72 hrs by MTT assay
Description for L02: Cytotoxicity against human L02 cells assessed as reduction in cell viability measured after 72 hrs by MTT assay
Description for MCF7: Antiproliferative activity against human MCF7 cells assessed as inhibition of cell growth measured after 72 hrs by MTT assay
Description for MDA-MB-231: Antiproliferative activity against human MDA-MB-231 cells assessed as inhibition of cell growth measured after 72 hrs by MTT assay
Description for SK-HEP1: Antiproliferative activity against human SK-HEP1 cells assessed as inhibition of cell growth measured after 72 hrs by MTT assay
Description for in vitro: Selectivity index, ratio of IC50 for cytotoxicity against human L02 cells to IC50 for antiproliferative activity against human HepG2 cells

Broadly, the IC50 is the concentration that gives 50% inhibition. Consider `CC(C)n1nc(-c2ccc3oc(N)nc3c2)c2c(N)ncnc21` [SAPANISERTIB], for which the IC50 in the series on MDA-MB-231 was 0.031 µM; with L02, 0.28 µM; with PLC-PRF-5, 6.63 µM; in the series with HeLa it was 0.036 µM; in the series with Huh-7, 0.007 µM; in the series with MCF7, 0.053 µM. The 50% inhibitory concentration (IC50) stood at 0.008 µM with SK-HEP1; 0.048 µM with HCT-116; 4.43 µM with Hep 3B2; 0.101 µM in the series on CNE-2; 2.13 µM in the series on HepG2; 0.174 µM in the series on A549. The half-inhibitory concentration (IC50) in the series on Bel-7402 was above 100 µM; in the series on SNU-423, 0.015 µM. Besides, the Stabilty result in [1] is listed as “Stable”.
For orientation: inhibition means the relative decrease from the control value, in per cent. Take `Nc1nc2cc(-c3nn(CCCCCCCCC(=O)NO)c4ncnc(N)c34)ccc2o1`: the IC50 in the series on MDA-MB-231 is 30.3 µM; in the series on PLC-PRF-5, 24 µM; with HeLa it was 10.2 µM; with Huh-7 it was 1.47 µM; in the series with MCF7, 42.1 µM; in the series with SK-HEP1, above 100 µM. In addition, the IC50 is 2.98 µM with HCT-116; 8.89 µM with Hep 3B2; 3.24 µM in the series with CNE-2; 2.61 µM in the series on HepG2; 13.2 µM in the series with A549; above 100 µM with Bel-7402. For the same compound, the IC50 in the series with SNU-423 stood at 4.94 µM. Also, the values for the inhibition in series [2] and in series [3] were 99% and 99.3%, respectively.
On to `O=C(CCCCCCC(=O)Nc1ccccc1)NO` [VORINOSTAT], for which the half-inhibitory concentration (IC50) is 2.22 µM in the series on PLC-PRF-5, 27.4 µM in the series with Bel-7402 and 0.079 µM in the series on SNU-423. Moreover, the Stabilty entry in series [1] is on record as “Stable”.
For the compound `Nc1nc2cc(-c3nn(CCCCCCCC(=O)NO)c4ncnc(N)c34)ccc2o1`, the half-maximal inhibitory concentration (IC50) was 2.9 µM in the series on MDA-MB-231; 8.04 µM with L02; 30.5 µM with PLC-PRF-5; 0.00673 µM in series [4]; 12.9 µM with HeLa; 2.77 µM in the series on Huh-7. Besides, the IC50 is 7.22 µM with MCF7; 10.7 µM in the series with SK-HEP1; 0.0025 µM on Histone deacetylase 1; 3.15 µM with HCT-116; 10.3 µM in the series with Hep 3B2; 0.334 µM on Histone deacetylase 8. Moreover, the IC50 against Histone deacetylase 2 stood at 0.0034 µM; at Histone deacetylase 3, 0.0071 µM; in the series with CNE-2, 2.25 µM; in the series with HepG2, 3.64 µM; in the series with A549 it was 8.36 µM; in the series on Bel-7402 it was 13.2 µM. Moreover, in the series on SNU-423, the IC50 came out at 0.28 µM. Also, the remaining at 1 h, 10 ug/ml in series [1] (liver microsomes, read-out: Stabilty) is 63.9%. Also, the inhibition entry in [5] and in series [6] was “Active” in each case. The selectivity ratio in the series “in vitro” was found to be 2.21. Besides, the inhibition in [2] is 99.1%; in series [3], 99.6%.
